We go through two compounds from BindingDB's records for doi:10.1016/j.bmcl.2013.03.113 (Vanderbilt University Medical Center, 2013).

The structures appear in SMILES notation. pIC50: −log10 of the molar value.

The assay addresses T1, Bone morphogenetic protein 4 (Mus musculus, UniProt P21275).
T1 sequence (P21275 whole entry): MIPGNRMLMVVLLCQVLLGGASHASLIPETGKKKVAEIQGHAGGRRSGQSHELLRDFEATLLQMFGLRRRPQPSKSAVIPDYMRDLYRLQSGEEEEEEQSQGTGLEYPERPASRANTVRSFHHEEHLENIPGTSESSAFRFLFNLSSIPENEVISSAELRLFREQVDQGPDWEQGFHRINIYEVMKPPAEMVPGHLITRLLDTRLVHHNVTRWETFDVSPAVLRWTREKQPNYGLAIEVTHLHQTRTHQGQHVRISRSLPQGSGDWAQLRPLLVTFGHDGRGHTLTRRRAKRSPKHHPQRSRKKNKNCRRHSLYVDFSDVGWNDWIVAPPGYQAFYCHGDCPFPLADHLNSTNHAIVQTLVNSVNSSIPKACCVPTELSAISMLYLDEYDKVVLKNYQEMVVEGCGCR
Nature of the assay: Inhibition of BMP4 in mouse C2C12BRA cells after 14 hrs by luciferase reporter gene assay.

The pIC50 is −log10 of the IC50, conventionally taken in molar units. Higher therefore signals a low IC50. `Clc1cc(-c2cnn3cc(-c4ccc(N5CCOCC5)cc4)cnc23)ccn1` gave a pIC50 of 6.28.
Next, `c1ccc2c(-c3cnn4cc(-c5ccc(N6CCOCC6)cc5)cnc34)csc2c1`: 6.38.
